Results taken from ChEMBL document CHEMBL5042477, “Potent Cyclic Peptide Inhibitors of FXIIa Discovered by mRNA Display with Genetic Code Reprogramming” (J Med Chem, 2021).
Where a SMILES comes first, the peptide text is derived from it. Bridges are numbered along the chain shown (N, C = ends). [ ]: non-standard residue; d: D form. Phe(2-CF3) = N[C@@H](Cc1ccccc1C(F)(F)F)C(=O)O; Tyr(3-F) = N[C@@H](Cc1ccc(O)c(F)c1)C(=O)O; Phe(3-CN) = N#Cc1cccc(C[C@H](N)C(=O)O)c1; Phe(2-OMe) = COc1ccccc1C[C@H](N)C(=O)O; Phe(4-Me) = Cc1ccc(C[C@H](N)C(=O)O)cc1; 1Nal = N[C@@H](Cc1cccc2ccccc12)C(=O)O; Phe(2-Me) = Cc1ccccc1C[C@H](N)C(=O)O; 4Pal = N[C@@H](Cc1ccncc1)C(=O)O; Tic = O=C(O)[C@@H]1Cc2ccccc2CN1; Cha = N[C@@H](CC1CCCCC1)C(=O)O; Orn = NCCC[C@H](N)C(=O)O

Target: T1, Coagulation factor XII (Homo sapiens, UniProt P00748)
T1 sequence (P00748 whole entry): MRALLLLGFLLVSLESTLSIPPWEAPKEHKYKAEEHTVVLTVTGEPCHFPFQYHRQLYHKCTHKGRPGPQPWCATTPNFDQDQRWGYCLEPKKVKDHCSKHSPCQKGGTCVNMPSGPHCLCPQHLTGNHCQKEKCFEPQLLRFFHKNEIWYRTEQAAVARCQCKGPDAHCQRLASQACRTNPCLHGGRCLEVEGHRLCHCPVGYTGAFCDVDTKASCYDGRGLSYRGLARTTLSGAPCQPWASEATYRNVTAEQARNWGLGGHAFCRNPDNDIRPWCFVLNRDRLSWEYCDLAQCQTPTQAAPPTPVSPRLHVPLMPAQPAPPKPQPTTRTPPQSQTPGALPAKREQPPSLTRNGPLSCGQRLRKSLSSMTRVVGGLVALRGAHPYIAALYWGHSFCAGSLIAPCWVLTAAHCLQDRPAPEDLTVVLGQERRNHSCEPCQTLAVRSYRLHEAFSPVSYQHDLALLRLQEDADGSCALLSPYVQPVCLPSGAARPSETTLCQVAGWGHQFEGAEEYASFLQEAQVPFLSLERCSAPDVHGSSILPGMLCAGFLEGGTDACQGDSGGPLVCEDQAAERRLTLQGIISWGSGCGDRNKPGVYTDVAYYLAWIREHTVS
Experiment: Inhibition of human factor 12a using H-D-Pro-Phe-Arg-p-nitroanilide as chromogenic substrate assessed as liberation of p-nitroaniline measured every 5 mins for 60 min by multimode plate reader analysis

Row | Structure (SMILES) | IC50 [nM]
1 | CC(C)C[C@@H]1NC(=O)[C@H](Cc2ccc(O)cc2)NC(=O)CSC[C@@H](C(N)=O)NC(=O)CNC(=O)CNC(=O)[C@H](CCCNC(=N)N)NC(=O)[C@H](CC(=O)O)NC(=O)[C@H](CCCCN)NC(=O)[C@@H]2CCCN2C(=O)[C@H](CCCNC(=N)N)NC(=O)[C@H](Cc2ccncc2)NC(=O)[C@H](CCCNC(=N)N)NC1=O ({CH2CO}-YLR[4Pal]RPKDRGGC-NH2; thioether N-12) | 120
2 | CC(C)C[C@@H]1NC(=O)[C@H](Cc2ccc(O)cc2)NC(=O)CSC[C@@H](C(N)=O)NC(=O)CNC(=O)CNC(=O)[C@H](CCCNC(=N)N)NC(=O)[C@H](CC(=O)O)NC(=O)[C@H](CCCCN)NC(=O)[C@@H]2CCCN2C(=O)[C@H](CCCNC(=N)N)NC(=O)[C@H](Cc2cccc3ccccc23)NC(=O)[C@H](CCCNC(=N)N)NC1=O ({CH2CO}-YLR[1Nal]RPKDRGGC-NH2; thioether N-12) | 68
3 | CC(C)C[C@@H]1NC(=O)[C@H](Cc2ccc(O)cc2)NC(=O)CSC[C@@H](C(N)=O)NC(=O)CNC(=O)CNC(=O)[C@H](C)NC(=O)[C@H](CC(N)=O)NC(=O)[C@H]([C@@H](C)O)NC(=O)[C@@H]2CCCN2C(=O)[C@H](CCCCN)NC(=O)[C@H](CC(C)C)NC(=O)[C@H](CCCNC(=N)N)NC1=O ({CH2CO}-YLRLKPTNAGGC-NH2; thioether N-12) | 1000
4 | C[C@@H]1NC(=O)[C@H](Cc2ccc(O)cc2)NC(=O)CSC[C@@H](C(N)=O)NC(=O)CNC(=O)CNC(=O)[C@H](CCCNC(=N)N)NC(=O)[C@H](CC(=O)O)NC(=O)[C@H](CCCCN)NC(=O)[C@@H]2CCCN2C(=O)[C@H](CCCNC(=N)N)NC(=O)[C@H](Cc2ccccc2)NC(=O)[C@H](CCCNC(=N)N)NC1=O ({CH2CO}-YARFRPKDRGGC-NH2; thioether N-12) | 290000
5 | CC(C)C[C@@H]1NC(=O)[C@H](Cc2ccc(O)cc2)NC(=O)CSC[C@@H](C(N)=O)NC(=O)CNC(=O)CNC(=O)[C@H](CCCNC(=N)N)NC(=O)[C@H](CC(=O)O)NC(=O)[C@H](CCCCN)NC(=O)[C@@H]2CCCN2C(=O)[C@H](CCCNC(=N)N)NC(=O)[C@@H]2Cc3ccccc3CN2C(=O)[C@H](CCCNC(=N)N)NC1=O ({CH2CO}-YLR[Tic]RPKDRGGC-NH2; thioether N-12) | 22000
6 | CC(C)C[C@@H]1NC(=O)[C@H](Cc2ccc(O)cc2)NC(=O)CSC[C@@H](C(N)=O)NC(=O)CNC(=O)CNC(=O)[C@H](CCC(N)=O)NC(=O)[C@H](C)NC(=O)[C@H]([C@@H](C)O)NC(=O)[C@@H]2CCCN2C(=O)[C@H](CCCCN)NC(=O)[C@H](CC(C)C)NC(=O)[C@H](CCCNC(=N)N)NC1=O ({CH2CO}-YLRLKPTAQGGC-NH2; thioether N-12) | 590
7 | CC(C)C[C@@H]1NC(=O)[C@H](CCCNC(=N)N)NC(=O)[C@H](CC(C)C)NC(=O)[C@H](Cc2ccc(O)cc2)NC(=O)CSC[C@@H](C(N)=O)NC(=O)CNC(=O)CNC(=O)[C@H](CCC(N)=O)NC(=O)[C@H](CC(N)=O)NC(=O)[C@H]([C@@H](C)O)NC(=O)[C@@H]2CCCN2C(=O)[C@H](C)NC1=O ({CH2CO}-YLRLAPTNQGGC-NH2; thioether N-12) | 60000
8 | CC(C)C[C@@H]1NC(=O)[C@H](Cc2ccc(O)cc2)NC(=O)CSC[C@@H](C(N)=O)NC(=O)CNC(=O)CNC(=O)[C@H](CCCNC(=N)N)NC(=O)[C@H](CC(=O)O)NC(=O)[C@H](CCCCN)NC(=O)[C@@H]2CCCN2C(=O)[C@H](CCCNC(=N)N)NC(=O)[C@H](Cc2ccccc2)NC(=O)[C@H](C)NC1=O ({CH2CO}-YLAFRPKDRGGC-NH2; thioether N-12) | 110000
9 | CC(C)C[C@@H]1NC(=O)[C@H](Cc2cccc(C#N)c2)NC(=O)CSC[C@@H](C(N)=O)NC(=O)CNC(=O)CNC(=O)[C@H](CCCNC(=N)N)NC(=O)[C@H](CC(=O)O)NC(=O)[C@H](CCCCN)NC(=O)[C@@H]2CCCN2C(=O)[C@H](CCCNC(=N)N)NC(=O)[C@H](Cc2ccccc2)NC(=O)[C@H](CCCNC(=N)N)NC1=O ({CH2CO}-[Phe(3-CN)]LRFRPKDRGGC-NH2; thioether N-12) | 3100
10 | CC(C)C[C@@H]1NC(=O)[C@H](Cc2ccc(O)cc2)NC(=O)CSC[C@@H](C(N)=O)NC(=O)[C@H](C)NC(=O)CNC(=O)[C@H](CCCNC(=N)N)NC(=O)[C@H](CC(=O)O)NC(=O)[C@H](CCCCN)NC(=O)[C@@H]2CCCN2C(=O)[C@H](CCCNC(=N)N)NC(=O)[C@H](Cc2ccccc2)NC(=O)[C@H](CCCNC(=N)N)NC1=O ({CH2CO}-YLRFRPKDRGAC-NH2; thioether N-12) | 15000
11 | CC(C)C[C@@H]1NC(=O)[C@H](Cc2ccc(O)cc2)NC(=O)CSC[C@@H](C(N)=O)NC(=O)CNC(=O)CNC(=O)[C@H](CCCNC(=N)N)NC(=O)[C@H](CC(=O)O)NC(=O)[C@H](C)NC(=O)[C@@H]2CCCN2C(=O)[C@H](CCCNC(=N)N)NC(=O)[C@H](Cc2ccccc2)NC(=O)[C@H](CCCNC(=N)N)NC1=O ({CH2CO}-YLRFRPADRGGC-NH2; thioether N-12) | 400
12 | CC(C)C[C@@H]1NC(=O)[C@H](Cc2ccc(O)cc2)NC(=O)CSC[C@@H](C(N)=O)NC(=O)CNC(=O)CNC(=O)[C@H](CCCNC(=N)N)NC(=O)[C@H](CC(=O)O)NC(=O)[C@H](CCCCN)NC(=O)[C@@H]2CCCN2C(=O)[C@H](CCCNC(=N)N)NC(=O)[C@H](Cc2ccccc2)NC(=O)[C@H](CCCN)NC1=O ({CH2CO}-YL[Orn]FRPKDRGGC-NH2; thioether N-12) | 71000
13 | Cc1ccc(C[C@@H]2NC(=O)[C@H](CCCNC(=N)N)NC(=O)[C@H](CC(C)C)NC(=O)[C@H](Cc3ccc(O)cc3)NC(=O)CSC[C@@H](C(N)=O)NC(=O)CNC(=O)CNC(=O)[C@H](CCCNC(=N)N)NC(=O)[C@H](CC(=O)O)NC(=O)[C@H](CCCCN)NC(=O)[C@@H]3CCCN3C(=O)[C@H](CCCNC(=N)N)NC2=O)cc1 ({CH2CO}-YLR[Phe(4-Me)]RPKDRGGC-NH2; thioether N-12) | 56
14 | CC(C)C[C@@H]1NC(=O)[C@H](Cc2ccc(O)cc2)NC(=O)CSC[C@@H](C(N)=O)NC(=O)CNC(=O)CNC(=O)[C@H](CCCNC(=N)N)NC(=O)[C@H](CC(=O)O)NC(=O)[C@H](CCCCN)NC(=O)[C@H](C)NC(=O)[C@H](CCCNC(=N)N)NC(=O)[C@H](Cc2ccccc2)NC(=O)[C@H](CCCNC(=N)N)NC1=O ({CH2CO}-YLRFRAKDRGGC-NH2; thioether N-12) | 260
15 | COc1ccccc1C[C@@H]1NC(=O)[C@H](CCCNC(=N)N)NC(=O)[C@H](CC(C)C)NC(=O)[C@H](Cc2ccc(O)cc2)NC(=O)CSC[C@@H](C(N)=O)NC(=O)CNC(=O)CNC(=O)[C@H](CCCNC(=N)N)NC(=O)[C@H](CC(=O)O)NC(=O)[C@H](CCCCN)NC(=O)[C@@H]2CCCN2C(=O)[C@H](CCCNC(=N)N)NC1=O ({CH2CO}-YLR[Phe(2-OMe)]RPKDRGGC-NH2; thioether N-12) | 60
16 | CC(C)C[C@@H]1NC(=O)[C@H](CCCNC(=N)N)NC(=O)[C@H](C)NC(=O)[C@H](Cc2ccc(O)cc2)NC(=O)CSC[C@@H](C(N)=O)NC(=O)CNC(=O)CNC(=O)[C@H](CCC(N)=O)NC(=O)[C@H](CC(N)=O)NC(=O)[C@H]([C@@H](C)O)NC(=O)[C@@H]2CCCN2C(=O)[C@H](CCCCN)NC1=O ({CH2CO}-YARLKPTNQGGC-NH2; thioether N-12) | 410000
17 | CC(C)C[C@@H]1NC(=O)[C@H](Cc2ccccc2C(F)(F)F)NC(=O)CSC[C@@H](C(N)=O)NC(=O)CNC(=O)CNC(=O)[C@H](CCCNC(=N)N)NC(=O)[C@H](CC(=O)O)NC(=O)[C@H](CCCCN)NC(=O)[C@@H]2CCCN2C(=O)[C@H](CCCNC(=N)N)NC(=O)[C@H](Cc2ccccc2)NC(=O)[C@H](CCCNC(=N)N)NC1=O ({CH2CO}-[Phe(2-CF3)]LRFRPKDRGGC-NH2; thioether N-12) | 120000
18 | CC(C)C[C@@H]1NC(=O)[C@H](Cc2ccc(O)c(F)c2)NC(=O)CSC[C@@H](C(N)=O)NC(=O)CNC(=O)CNC(=O)[C@H](CCCNC(=N)N)NC(=O)[C@H](CC(=O)O)NC(=O)[C@H](CCCCN)NC(=O)[C@@H]2CCCN2C(=O)[C@H](CCCNC(=N)N)NC(=O)[C@H](Cc2ccccc2)NC(=O)[C@H](CCCNC(=N)N)NC1=O ({CH2CO}-[Tyr(3-F)]LRFRPKDRGGC-NH2; thioether N-12) | 150
19 | CC(C)C[C@@H]1NC(=O)[C@H](Cc2ccc(O)cc2)NC(=O)CSC[C@@H](C(N)=O)NC(=O)CNC(=O)CNC(=O)[C@H](CCCNC(=N)N)NC(=O)[C@H](CC(=O)O)NC(=O)[C@H](CCCCN)NC(=O)[C@@H]2CCCN2C(=O)[C@H](CCCNC(=N)N)NC(=O)[C@H](CC2CCCCC2)NC(=O)[C@H](CCCNC(=N)N)NC1=O ({CH2CO}-YLR[Cha]RPKDRGGC-NH2; thioether N-12) | 53
20 | Cc1ccccc1C[C@@H]1NC(=O)[C@H](CCCNC(=N)N)NC(=O)[C@H](CC(C)C)NC(=O)[C@H](Cc2ccc(O)cc2)NC(=O)CSC[C@@H](C(N)=O)NC(=O)CNC(=O)CNC(=O)[C@H](CCCNC(=N)N)NC(=O)[C@H](CC(=O)O)NC(=O)[C@H](CCCCN)NC(=O)[C@@H]2CCCN2C(=O)[C@H](CCCNC(=N)N)NC1=O ({CH2CO}-YLR[Phe(2-Me)]RPKDRGGC-NH2; thioether N-12) | 43
21 | CC(C)C[C@@H]1NC(=O)[C@H](Cc2ccc(O)cc2)NC(=O)CSC[C@@H](C(N)=O)NC(=O)[C@H](CCCNC(=N)N)NC(=O)[C@H](Cc2ccccc2)NC(=O)[C@H](CCCNC(=N)N)NC1=O ({CH2CO}-YLRFRC-NH2; thioether N-6) | 200000
